A word on the IC50: it is the concentration that gives 50% inhibition. For orientation: % Inhibition means the change of the read-out against control, counted positive when it falls. Low values mean little suppression, high ones strong suppression. The term inhibition denotes the relative decrease from the control value, in per cent.

The values that follow come from paper PMC8508980, “Design, Synthesis and Anticancer Profile of New 4-(1H-benzo[d]imidazol-1-yl)pyrimidin-2-amine-Linked Sulfonamide Derivatives with V600EBRAF Inhibitory Effect” (International Journal of Molecular Sciences, 2021).

One assay concerns KM12. The experiment in a line: NCI 60 cell line screen. The class given is cell-based, human. To be noted: Homo sapiens; KM12, Colon Cancer; read-out: Percent growth. In a few lines: (§1)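 Growth inhibition is expressed as percent growth versus time-zero and vehicle controls, from SRB absorbance at 515 nm. Compounds span five concentrations (max 10 µM) for 48 h in RPMI 1640 with 5% serum. TGI corresponds to Ti = Tz.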

The subject of the next assay is MOLT-4. The experiment in a line: NCI 60 cell line screen. The class given is cell-based, human. To be noted: for activity at 10 µM: Homo sapiens, MOLT-4, Leukemia, read-out: Percent growth. In a few lines: as §1
Another assay deals with HCT-15. The experiment in a line: NCI 60 cell line screen. The class given is cell-based, human. To be noted: Homo sapiens; HCT-15, Colon Cancer; read-out: Percent growth. In a few lines:
(§2)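 Human tumour lines were grown in RPMI 1640 with 5% FBS and 2 mM L-glutamine, then exposed 48 h at 37 °C to five concentrations (max 10 µM) after 24 h pre-incubation. Growth was measured by sulforhodamine B protein staining at 515 nm relative to time-zero and untreated controls.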

The test system of the next assay is HT29. Briefly: NCI 60 cell line screen. The class given is cell-based, human. As to conditions: Homo sapiens, HT-29; HT29, Colon Cancer; read-out: Percent growth. An outline of the steps: as §2
In a further assay the test system is NCI-H23. Briefly: NCI 60 cell line screen. In kind it is cell-based, human. To be noted: Homo sapiens; NCI-H23, Non-Small Cell Lung Cancer; read-out: Percent growth. An outline of the steps: as §2
Another assay relates to SK-MEL-5. The experiment in a line: NCI 60 cell line screen. In kind it is cell-based, human. As to conditions: for activity at 10 µM: Homo sapiens, SK-MEL-5, Melanoma, read-out: Percent growth; for percent inhibition: SK-MEL-5, NCI-60 heat map analysis. In a few lines: as §1
The next assay has as its system K-562. The experiment in a line: NCI 60 cell line screen. To be noted: for activity at 10 µM: Homo sapiens, K562, K-562, Leukemia, read-out: Percent growth. The class given is cell-based, human. In a few lines:
as §2

A further assay deals with RXF 393. Briefly: NCI 60 cell line screen. To be noted: Homo sapiens; RXF 393, Renal Cancer; read-out: Percent growth. The class given is cell-based, human. In a few lines: as §2
The subject of a further assay is SR. Briefly: NCI 60 cell line screen. The class given is cell-based, human. As to conditions: Homo sapiens, Leukemia, read-out: Percent growth. An outline of the steps: as §1
The test system of the next assay is NCI-H460. Briefly: NCI 60 cell line screen. To be noted: Homo sapiens; NCI-H460, Non-Small Cell Lung Cancer; read-out: Percent growth. In kind it is cell-based, human. An outline of the steps:
as §2

The next assay deals with SF-295. The experiment in a line: NCI 60 cell line screen. In kind it is cell-based, human. As to conditions: Homo sapiens; SF-295, CNS-Cancer; read-out: Percent growth. In a few lines: as §2
For a further assay, the target named is T1, V600EBRAF (Homo sapiens, UniProt P15056, V600E).
T1 construct: purchased Reaction Biology Corp. (Kinase HotSpot service)
T1 sequence (P15056 whole entry V600E): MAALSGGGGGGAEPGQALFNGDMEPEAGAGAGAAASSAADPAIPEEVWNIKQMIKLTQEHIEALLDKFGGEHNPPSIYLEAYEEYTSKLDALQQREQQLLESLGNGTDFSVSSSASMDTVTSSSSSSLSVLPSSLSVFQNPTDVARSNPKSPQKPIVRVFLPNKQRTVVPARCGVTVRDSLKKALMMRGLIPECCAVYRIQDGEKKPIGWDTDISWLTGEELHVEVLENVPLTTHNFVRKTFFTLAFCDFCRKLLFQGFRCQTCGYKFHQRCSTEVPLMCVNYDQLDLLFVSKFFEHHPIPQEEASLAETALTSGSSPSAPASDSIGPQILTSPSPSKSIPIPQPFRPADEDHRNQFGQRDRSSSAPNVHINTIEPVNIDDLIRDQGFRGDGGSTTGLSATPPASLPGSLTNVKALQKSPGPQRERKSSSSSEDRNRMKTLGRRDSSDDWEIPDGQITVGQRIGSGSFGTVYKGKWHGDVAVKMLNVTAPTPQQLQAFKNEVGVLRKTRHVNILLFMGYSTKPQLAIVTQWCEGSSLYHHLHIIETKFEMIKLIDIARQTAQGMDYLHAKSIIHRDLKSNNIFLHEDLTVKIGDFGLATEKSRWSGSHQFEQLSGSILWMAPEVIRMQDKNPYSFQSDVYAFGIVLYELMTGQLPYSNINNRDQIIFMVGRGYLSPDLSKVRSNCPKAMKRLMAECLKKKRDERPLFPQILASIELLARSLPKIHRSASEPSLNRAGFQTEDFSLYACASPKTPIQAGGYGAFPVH
Briefly: Reaction Biology kinase HotSpot enzyme assay. In kind it is biochemical. To be noted: 1 µM ATP; for IC50: mean ± S.D. of two separate experiments; for % Inhibition at 1 µM over V600EBRAF / inhibition at 1 µM: single dose 1 µM, mean ± S.D. of two experiments; for inhibition at 1 µM: read-out: % Inhibition at 1 µM over V600EBRAF. The protocol: Reaction Biology Corp. Kinase HotSpotTM service
Proﬁler Express for IC50 measurement. Assay protocol: In a ﬁnal reaction volume of 25 μL, kinase (5–10 mU) is incubated with 25 mM Tris pH 7.5, 0.02 mM EGTA, 0.66 mg/mL myelin basic protein, 10 mM magnesium acetate and [γ33P-ATP] (speciﬁc activity approx. 500 cpm/pmol, concentration as required). The reaction is initiated by the addition of the Mg-ATP mix. After incubation for 40 min at room temperature, the reaction is stopped by the addition of 5 μL of a 3% phosphoric acid solution. 10 μL of the reaction is then spotted onto a P30 ﬁltermat, and washed three times for 5 min in 75 mM phosphoric acid and once in methanol prior to drying and scintillation counting.

Take `O=S(=O)(NCCCNc1nccc(-n2cnc3ccccc32)n1)c1ccccc1` [12h, N-(3-((4-(1H-benzo [d]imidazol-1-yl)pyrimidin-2-yl)amino)propyl)benzenesulfonamide]: the activity at 10 µM stood at 71% in the assay on KM12; 77.2% in the assay with MOLT-4; 88% in the assay on HCT-15; 101% with HT29; 91.8% with NCI-H23; 60.2% in the assay with SK-MEL-5. Moreover, the activity at 10 µM in the assay with K-562 turned out to be 79.5%; in the assay on RXF 393 it was 110%; in the assay with SR, 80%; in the assay with NCI-H460 it was 96.9%; with SF-295 it was 92.5%. The compound also displayed a percent inhibition with SK-MEL-5 of 40%. Besides, the IC50 against V600EBRAF was 1120 ± 98 nM. In addition, the “% Inhibition at 1 µM over V600EBRAF” value at V600EBRAF is listed as 49.54 ± 0.61%. Further, on V600EBRAF, the inhibition at 1 µM was 50%.

In the case of `O=S(=O)(NCCCNc1nccc(-n2cnc3ccccc32)n1)c1cccc2ccccc12` [12n, N-(3-((4-(1H-benzo [d]imidazol-1-yl)pyrimidin-2-yl)amino)propyl)naphthalene-1-sulfonamide], the activity at 10 µM came out at 79.8% in the assay with KM12; 67% with MOLT-4; 81.8% with HCT-15; 96.3% in the assay with HT29; 91.3% in the assay with NCI-H23; 58.8% in the assay on SK-MEL-5. Besides, the activity at 10 µM was 67.6% in the assay on K-562; 105% in the assay on RXF 393; 75.4% in the assay with SR; 89.8% in the assay on NCI-H460; 81.2% with SF-295. Also, the percent inhibition result is listed as “around 30%” in the assay on MOLT-4 (MOLT-4, NCI-60 heat map analysis); 40% with SK-MEL-5; “around 30%” in the assay on K-562 (K-562, NCI-60 heat map analysis). For the same compound, it took 1280 ± 144 nM to reach half-maximal inhibition at V600EBRAF (IC50). The “% Inhibition at 1 µM over V600EBRAF” value on V600EBRAF turned out to be 41.27 ± 0.46%. The inhibition at 1 µM on V600EBRAF is 41%.
